Experimental findings from US10745382B2 (BRISTOL-MYERS SQUIBB COMPANY, priority 2015, dated 2020) are described below.

The target in this test is T1, PD-1/PD-L1 (Homo sapiens, UniProt Q9NZQ7).
T1 construct: made in house; host or cells: HEK293T
The test is described as follows: PD-1/PD-L1 Homogenous Time-Resolved Fluorescence (HTRF) binding assay. As to conditions: PD-L1-His 10 nM, PD-1-Ig 20 nM; value given as range class; read-out: Range or IC50. The essentials: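 Compounds are tested for blocking the PD-1/PD-L1 interaction in dPBS supplemented with 0.1% BSA and 0.05% (v/v) Tween-20. Tagged proteins are detected with Eu-cryptate anti-Ig and APC anti-His at 1 and 20 nM final.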

T1 sequence (Q9NZQ7 with tags, fused parts or gaps): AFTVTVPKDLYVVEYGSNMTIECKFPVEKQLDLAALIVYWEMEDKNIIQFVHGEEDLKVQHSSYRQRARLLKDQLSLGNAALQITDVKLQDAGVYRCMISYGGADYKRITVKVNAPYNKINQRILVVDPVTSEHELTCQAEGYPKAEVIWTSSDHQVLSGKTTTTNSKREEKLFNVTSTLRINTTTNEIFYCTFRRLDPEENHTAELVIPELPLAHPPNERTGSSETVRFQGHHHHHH

Turning to `COC(=O)[C@@H]1CCCCN1Cc1cc(Cl)c(OCc2cccc(-c3cccc(OCCCN4CC[C@@H](O)C4)c3C)c2C)cc1OCc1cncc(C#N)c1` [Example 3067, methyl (S)-1-(5-chloro-2-((5-cyanopyridin-3-yl)methoxy)-4-((3′-(3-((R)-3-hydroxypyrrolidin-1-yl)propoxy)-2,2′-dimethyl-[1,1′-biphenyl]-3-yl)methoxy)benzyl)piperidine-2-carboxylate], the IC50 was 0.21 to 10 nM. Consider `Cc1c(COc2cc(OCc3cncc(C#N)c3)c(CN3CCCCC3(C)C(=O)O)cc2Cl)cccc1-c1cccc(OCCCN2CC[C@@H](O)C2)c1C` (stereo partly drawn) [Example 3068, 1-(5-chloro-2-((5-cyanopyridin-3-yl)methoxy)-4-((3′-(3-((R)-3-hydroxypyrrolidin-1-yl)propoxy)-2,2′-dimethyl-[1,1′-biphenyl]-3-yl)methoxy)benzyl)-2-methylpiperidine-2-carboxylic Acid], for which the IC50 was 0.21 to 10 nM.

Turning to `COC(=O)C1(C)CCCCN1Cc1cc(Cl)c(OCc2cccc(-c3cccc(OCCCN4CC[C@@H](O)C4)c3C)c2C)cc1OCc1cncc(C#N)c1` (stereo partly drawn) [Example 3069, methyl 1-(5-chloro-2-((5-cyanopyridin-3-yl)methoxy)-4-((3′-(3-((R)-3-hydroxypyrrolidin-1-yl)propoxy)-2,2′-dimethyl-[1,1′-biphenyl]-3-yl)methoxy)benzyl)-2-methylpiperidine-2-carboxylate], the IC50 was in the range of 0.21 to 10 nM. For the compound `COC(=O)C1(C)CCCCN1Cc1cc(Cl)c(OCc2cccc(-c3cccc(OCCCN4CC[C@@H](O)C4)c3Cl)c2C)cc1OCc1cncc(C#N)c1` (stereo partly drawn) [Example 3070, methyl 1-(5-chloro-4-((2′-chloro-3′-(3-((R)-3-hydroxypyrrolidin-1-yl)propoxy)-2-methyl-[1,1′-biphenyl]-3-yl)methoxy)-2-((5-cyanopyridin-3-yl)methoxy)benzyl)-2-methylpiperidine-2-carboxylate], the IC50 is 0.21 to 10 nM. Consider `Cc1c(COc2ccc(CN3CCCC[C@H]3C(=O)O)cc2Cl)cccc1-c1cccc(OCCCN2CC[C@@H](O)C2)c1C` [Example 3072, (S)-1-(3-chloro-4-((3′-(3-((R)-3-hydroxypyrrolidin-1-yl)propoxy)-2,2′-dimethyl-[1,1′-biphenyl]-3-yl)methoxy)benzyl)piperidine-2-carboxylic Acid], for which the IC50 was 0.21 to 10 nM. On to `Cc1c(COc2cc(OCc3cncc(C#N)c3)c(CN3CCCC[C@H]3C(=O)O)cc2Cl)cccc1-c1cccc(C(=O)N2CC2)c1C` [Example 4001, (S)-1-(4-((3′-(aziridine-1-carbonyl)-2,2′-dimethyl-[1,1′-biphenyl]-3-yl)methoxy)-5-chloro-2-((5-cyanopyridin-3-yl)methoxy)benzyl)piperidine-2-carboxylic Acid], for which the IC50 was in the range of 0.21 to 10 nM. For `Cc1c(COc2cc(OCc3cncc(C#N)c3)c(CN3CCCC[C@H]3C(=O)O)cc2Cl)cccc1-c1cccc(C(=O)NCCN2CCCC2)c1C` [Example 4002, (S)-1-(5-chloro-2-((5-cyanopyridin-3-yl)methoxy)-4-((2,2′-dimethyl-3′-((2-(pyrrolidin-1-yl)ethyl)carbamoyl)-[1,1′-biphenyl]-3-yl)methoxy)benzyl)piperidine-2-carboxylic Acid] the value was 10 to 100 nM; for `Cc1c(COc2cc(OCc3cncc(C#N)c3)c(CNC(CO)CO)cc2Cl)cccc1-c1cccc(C(=O)NCCN2CCCC2)c1C` [Example 4003, 3′-((2-chloro-5-((5-cyanopyridin-3-yl)methoxy)-4-(((1,3-dihydroxypropan-2-yl)amino)methyl)phenoxy)methyl)-2,2′-dimethyl-N-(2-(pyrrolidin-1-yl)ethyl)-[1,1′-biphenyl]-3-carboxamide], 0.21 to 10 nM. As to `Cc1c(COc2cc(OCc3cncc(C#N)c3)c(CN3CCCC[C@H]3C(=O)O)cc2Cl)cccc1-c1cccc(C(=O)NCCN2CCS(=O)(=O)CC2)c1C` [Example 4004, (S)-1-(5-chloro-2-((5-cyanopyridin-3-yl)methoxy)-4-((3′-((2-(1,1-dioxidothiomorpholino)ethyl)carbamoyl)-2,2′-dimethyl-[1,1′-biphenyl]-3-yl)methoxy)benzyl)piperidine-2-carboxylic Acid], the IC50 is 10 to 100 nM.
